In ChEMBL document CHEMBL5512688 (J Med Chem, 2024):

Biological target: T1, Wee1-like protein kinase (Homo sapiens, UniProt P30291)
Experiment: Inhibition of human Wee1 (215 to 647 residues) using polyornithine/tyrosine (4:1) as substrate incubated for 5 mins in presence of ATP by micro beta plate reader analysis
Settings: not given

T1 sequence (P30291 whole entry, the tested form may be a part): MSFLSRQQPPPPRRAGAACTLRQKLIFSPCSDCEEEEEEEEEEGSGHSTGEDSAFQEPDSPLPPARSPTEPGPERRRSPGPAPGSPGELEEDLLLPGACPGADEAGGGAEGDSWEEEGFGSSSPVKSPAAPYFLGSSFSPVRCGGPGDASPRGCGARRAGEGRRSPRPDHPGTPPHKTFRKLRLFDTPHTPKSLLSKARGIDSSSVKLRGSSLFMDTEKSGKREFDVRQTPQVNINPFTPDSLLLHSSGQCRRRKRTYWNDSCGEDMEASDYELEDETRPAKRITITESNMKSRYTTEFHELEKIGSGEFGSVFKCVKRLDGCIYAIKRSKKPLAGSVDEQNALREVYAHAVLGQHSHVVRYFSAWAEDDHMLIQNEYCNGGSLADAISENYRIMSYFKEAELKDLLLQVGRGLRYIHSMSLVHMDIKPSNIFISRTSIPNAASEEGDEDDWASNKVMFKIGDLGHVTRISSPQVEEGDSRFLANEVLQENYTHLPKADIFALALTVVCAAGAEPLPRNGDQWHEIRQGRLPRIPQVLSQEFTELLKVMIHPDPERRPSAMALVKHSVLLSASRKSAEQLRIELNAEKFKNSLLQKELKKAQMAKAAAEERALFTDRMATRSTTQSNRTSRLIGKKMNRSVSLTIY

Row | Structure (SMILES) | IC50 [nM]
1 | C=CCn1c(=O)c2cnc(Nc3ccc(N4CCN(C)CC4)cc3)nc2n1-c1cccc(-c2ncc(C)cn2)n1 | 2.2
2 | C=CCn1c(=O)c2cnc(Nc3ccc(N4CCC(N5CCN(C)CC5)CC4)cc3)nc2n1-c1cccc(-c2ncccn2)n1 | 3.7

Tested on: A-427
Experiment: Antiproliferative activity against human A-427 cells assessed as inhibition of cell growth incubated for 72 hrs by CCK-8 assay
Type: functional, cell-based
Settings: A-427, 72 h

Row | Structure (SMILES) | IC50 [nM]
3 | C=CCn1c(=O)c2cnc(Nc3ccc(N4CCN(C)CC4)cc3)nc2n1-c1cccc(C(C)(C)O)n1 [ADAVOSERTIB] | 311
4 | C=CCn1c(=O)c2cnc(Nc3ccc(N4CCN(C)CC4)cc3)nc2n1-c1cccc(-c2ncc(C)cn2)n1 | 476
5 | C=CCn1c(=O)c2cnc(Nc3ccc(N4CCC(N5CCN(C)CC5)CC4)cc3)nc2n1-c1cccc(-c2ncccn2)n1 | 585

Tested on: not listed separately
Experiment: Metabolic stability in human liver microsome assessed as parent compound remaining measured at 60 mins by LCMS/MS analysis
Type: ADME
Settings: liver microsomes, read-out: Stability

Row | Structure (SMILES) | remaining at 1 h [%]
6 | C=CCn1c(=O)c2cnc(Nc3ccc(N4CCN(C)CC4)cc3)nc2n1-c1cccc(C(C)(C)O)n1 [ADAVOSERTIB] | 32.7
7 | C=CCn1c(=O)c2cnc(Nc3ccc(N4CCN(C)CC4)cc3)nc2n1-c1cccc(-c2ncc(C)cn2)n1 | 71.2
8 | C=CCn1c(=O)c2cnc(Nc3ccc(N4CCC(N5CCN(C)CC5)CC4)cc3)nc2n1-c1cccc(-c2ncccn2)n1 | 88.9

Tested on: not listed separately
Experiment: Metabolic stability in mouse liver microsome assessed as parent compound remaining measured at 60 mins by LCMS/MS analysis
Type: ADME
Settings: liver microsomes, read-out: Stability

Row | Structure (SMILES) | remaining at 1 h [%]
9 | C=CCn1c(=O)c2cnc(Nc3ccc(N4CCN(C)CC4)cc3)nc2n1-c1cccc(C(C)(C)O)n1 [ADAVOSERTIB] | 9.67
10 | C=CCn1c(=O)c2cnc(Nc3ccc(N4CCN(C)CC4)cc3)nc2n1-c1cccc(-c2ncc(C)cn2)n1 | 59.4
11 | C=CCn1c(=O)c2cnc(Nc3ccc(N4CCC(N5CCN(C)CC5)CC4)cc3)nc2n1-c1cccc(-c2ncccn2)n1 | 97.1

Tested on: not listed separately
Experiment: AUC (0 to 24 hrs) in ICR mouse at 1 mg/kg, iv measured upto 24 hrs by LC-MS/MS analysis
Type: ADME, organism-based
Settings: in vivo

Row | Structure (SMILES) | AUC(0-t) at 24 h [ng·h/mL]
12 | C=CCn1c(=O)c2cnc(Nc3ccc(N4CCN(C)CC4)cc3)nc2n1-c1cccc(C(C)(C)O)n1 [ADAVOSERTIB] | 47.1
13 | C=CCn1c(=O)c2cnc(Nc3ccc(N4CCN(C)CC4)cc3)nc2n1-c1cccc(-c2ncc(C)cn2)n1 | 1160
14 | C=CCn1c(=O)c2cnc(Nc3ccc(N4CCC(N5CCN(C)CC5)CC4)cc3)nc2n1-c1cccc(-c2ncccn2)n1 | 980

Tested on: not listed separately
Experiment: Half life in ICR mouse at 1 mg/kg, iv measured upto 24 hrs by LC-MS/MS analysis
Type: ADME, organism-based
Settings: in vivo

Row | Structure (SMILES) | half-life [h]
15 | C=CCn1c(=O)c2cnc(Nc3ccc(N4CCN(C)CC4)cc3)nc2n1-c1cccc(C(C)(C)O)n1 [ADAVOSERTIB] | 0.59
16 | C=CCn1c(=O)c2cnc(Nc3ccc(N4CCN(C)CC4)cc3)nc2n1-c1cccc(-c2ncc(C)cn2)n1 | 1.65
17 | C=CCn1c(=O)c2cnc(Nc3ccc(N4CCC(N5CCN(C)CC5)CC4)cc3)nc2n1-c1cccc(-c2ncccn2)n1 | 2.39

Tested on: not listed separately
Experiment: Volume of distribution in ICR mouse at 1 mg/kg, iv measured upto 24 hrs by LC-MS/MS analysis
Type: ADME, organism-based
Settings: in vivo

Row | Structure (SMILES) | Vd [L/kg]
18 | C=CCn1c(=O)c2cnc(Nc3ccc(N4CCN(C)CC4)cc3)nc2n1-c1cccc(C(C)(C)O)n1 [ADAVOSERTIB] | 16.1
19 | C=CCn1c(=O)c2cnc(Nc3ccc(N4CCN(C)CC4)cc3)nc2n1-c1cccc(-c2ncc(C)cn2)n1 | 1.98
20 | C=CCn1c(=O)c2cnc(Nc3ccc(N4CCC(N5CCN(C)CC5)CC4)cc3)nc2n1-c1cccc(-c2ncccn2)n1 | 3.72

Tested on: not listed separately
Experiment: Clearance in ICR mouse at 1 mg/kg, iv measured upto 24 hrs by LC-MS/MS analysis
Type: ADME, organism-based
Settings: in vivo

Row | Structure (SMILES) | clearance [mL/min/kg]
21 | C=CCn1c(=O)c2cnc(Nc3ccc(N4CCN(C)CC4)cc3)nc2n1-c1cccc(C(C)(C)O)n1 [ADAVOSERTIB] | 350
22 | C=CCn1c(=O)c2cnc(Nc3ccc(N4CCN(C)CC4)cc3)nc2n1-c1cccc(-c2ncc(C)cn2)n1 | 14.2
23 | C=CCn1c(=O)c2cnc(Nc3ccc(N4CCC(N5CCN(C)CC5)CC4)cc3)nc2n1-c1cccc(-c2ncccn2)n1 | 16.8

Tested on: not listed separately
Experiment: AUC (0 to 24 hrs) in ICR mouse at 60 mg/kg, IG measured upto 24 hrs by LC-MS/MS analysis
Type: ADME, organism-based
Settings: in vivo, po

Row | Structure (SMILES) | AUC(0-t) at 24 h [ng·h/mL]
24 | C=CCn1c(=O)c2cnc(Nc3ccc(N4CCN(C)CC4)cc3)nc2n1-c1cccc(C(C)(C)O)n1 [ADAVOSERTIB] | 2320
25 | C=CCn1c(=O)c2cnc(Nc3ccc(N4CCN(C)CC4)cc3)nc2n1-c1cccc(-c2ncc(C)cn2)n1 | 58100
26 | C=CCn1c(=O)c2cnc(Nc3ccc(N4CCC(N5CCN(C)CC5)CC4)cc3)nc2n1-c1cccc(-c2ncccn2)n1 | 32400

Tested on: not listed separately
Experiment: Half life in ICR mouse at 60 mg/kg, IG measured upto 24 hrs by LC-MS/MS analysis
Type: ADME, organism-based
Settings: in vivo, po

Row | Structure (SMILES) | half-life [h]
27 | C=CCn1c(=O)c2cnc(Nc3ccc(N4CCN(C)CC4)cc3)nc2n1-c1cccc(C(C)(C)O)n1 [ADAVOSERTIB] | 1.67
28 | C=CCn1c(=O)c2cnc(Nc3ccc(N4CCN(C)CC4)cc3)nc2n1-c1cccc(-c2ncc(C)cn2)n1 | 3.9
29 | C=CCn1c(=O)c2cnc(Nc3ccc(N4CCC(N5CCN(C)CC5)CC4)cc3)nc2n1-c1cccc(-c2ncccn2)n1 | 3.71

Tested on: not listed separately
Experiment: Bioavailability in ICR mouse at 60 mg/kg, IG measured upto 24 hrs by LC-MS/MS analysis
Type: ADME, organism-based
Settings: in vivo, po

Row | Structure (SMILES) | bioavailability [%]
30 | C=CCn1c(=O)c2cnc(Nc3ccc(N4CCN(C)CC4)cc3)nc2n1-c1cccc(C(C)(C)O)n1 [ADAVOSERTIB] | 82.1
31 | C=CCn1c(=O)c2cnc(Nc3ccc(N4CCN(C)CC4)cc3)nc2n1-c1cccc(-c2ncc(C)cn2)n1 | 83.1
32 | C=CCn1c(=O)c2cnc(Nc3ccc(N4CCC(N5CCN(C)CC5)CC4)cc3)nc2n1-c1cccc(-c2ncccn2)n1 | 55.1

Tested on: LoVo
Experiment: Antiproliferative activity against human LoVo cells assessed as inhibition of cell growth incubated for 72 hrs by CCK-8 method
Type: functional, cell-based
Settings: not given

Row | Structure (SMILES) | IC50 [nM]
33 | C=CCn1c(=O)c2cnc(Nc3ccc(N4CCN(C)CC4)cc3)nc2n1-c1cccc(C(C)(C)O)n1 [ADAVOSERTIB] | 328
34 | C=CCn1c(=O)c2cnc(Nc3ccc(N4CCN(C)CC4)cc3)nc2n1-c1cccc(-c2ncc(C)cn2)n1 | 555
35 | C=CCn1c(=O)c2cnc(Nc3ccc(N4CCC(N5CCN(C)CC5)CC4)cc3)nc2n1-c1cccc(-c2ncccn2)n1 | 714
36 | C=CCn1c(=O)c2cnc(Nc3ccc(N4CCN(C)CC4)cc3)nc2n1-c1ccc2c(n1)[C@@](O)(CC)CC2 [AZENOSERTIB] | 317

Biological target: T1, Wee1-like protein kinase
Experiment: Inhibition of Wee1 in human U2OS cells assessed as reduction in CDK1 phosphorylation measured for 1 hr by Western blot analysis
Type: cell-based
Settings: not given

Row | Structure (SMILES) | IC50 [nM]
37 | C=CCn1c(=O)c2cnc(Nc3ccc(N4CCN(C)CC4)cc3)nc2n1-c1cccc(-c2ncc(C)cn2)n1 | 367
38 | C=CCn1c(=O)c2cnc(Nc3ccc(N4CCC(N5CCN(C)CC5)CC4)cc3)nc2n1-c1cccc(-c2ncccn2)n1 | 914
39 | C=CCn1c(=O)c2cnc(Nc3ccc(N4CCN(C)CC4)cc3)nc2n1-c1ccc2c(n1)[C@@](O)(CC)CC2 [AZENOSERTIB] | 567

Tested on: LoVo
Experiment: Antitumor activity against human LoVo cells xenografted in female BALB/c nude mouse assessed as tumor growth inhibition at 60 mg/kg, IG administered once daily for 27 days
Type: functional
Settings: po, 648 h, time 27 day, read-out: TGI

Row | Structure (SMILES) | inhibition in vivo at 60 mg/kg [%]
40 | C=CCn1c(=O)c2cnc(Nc3ccc(N4CCN(C)CC4)cc3)nc2n1-c1cccc(C(C)(C)O)n1 [ADAVOSERTIB] | 70
41 | C=CCn1c(=O)c2cnc(Nc3ccc(N4CCN(C)CC4)cc3)nc2n1-c1cccc(-c2ncc(C)cn2)n1 | 72
42 | C=CCn1c(=O)c2cnc(Nc3ccc(N4CCN(C)CC4)cc3)nc2n1-c1ccc2c(n1)[C@@](O)(CC)CC2 [AZENOSERTIB] | 80

Tested on: not listed separately
Experiment: Acute toxicity in female C57 mouse assessed as body weight loss at 2000 mg/kg, IG measured for 7 days
Type: organism-based
Settings: in vivo, po, 168 h, time 7 day

Row | Structure (SMILES) | Activity
43 | C=CCn1c(=O)c2cnc(Nc3ccc(N4CCN(C)CC4)cc3)nc2n1-c1cccc(C(C)(C)O)n1 [ADAVOSERTIB] | Toxic
